Key:
HepG2 cells [1] = settings: HepG2 cells treated for 2 days; non-patent document 8; cited from earlier work
[2] = non-patent document 12; cited from earlier work
[3] = system: Hepatoblastoma HepG2 cells; assay: Morphology of HepG2 cells cultured with substance that inhibits DNA methylation caused by Dnmt-1; assay type: cell-based, human; settings: 2.5 μM; day 14 of culture
Procedure: (§1) Hepatoblastoma HepG2 cells (American Type Culture Collection: ATCC) were plated on a 35 mm cell culture dish at 7×10^5 cells, and cultured in DMEM (Invitrogen Corporation) added with 100 IU/mL penicillin-100 μg/mL streptomycin solution (Invitrogen Corporation), 10% fetal bovine serum (Thermo Fisher Scientific K.K.), and a substance that inhibits DNA methylation (5-aza-2′-deoxycytidine: 5-aza (decitabine): 2.5 μM). The medium was exchanged every day.

HepG2 cells [4] = assay: PAS staining of HepG2 cells (glycogen storage capacity); assay type: cell-based, human; settings: 2.5 μM; culture for 14 days; compared to control without inhibitor
Procedure: as §1, with “HepG2” for “Hepatoblastoma HepG2”, “(ATCC)” for “(American Type Culture Collection: ATCC)”

[5] = system: Mouse hepatic progenitor cells; assay: Expression level of hepatocyte markers after differentiation induction of mouse hepatic progenitor cells (real-time PCR); assay type: cell-based; settings: for expression level of Cyp17a1 / expression level of G6pc / expression level of Tat / expression level of albumin: 100 nM siRNA introduced on day 2, day 6 of culture, compared to control siRNA (siCtrl)
Procedure: To a basal medium for hepatocyte were added 5 μg/mL of insulin (Sigma-Aldrich Corporation), 25 ng/mL of epidermal growth factor (EGF) (Sigma-Aldrich Corporation), 25 ng/mL of hepatocyte growth factor (HGF) (Peprotech), 12.5 ng/mL of oncostatin M (Sigma-Aldrich Corporation), 5×10^−7M hydrocortisone 21-hemisuccinate sodium salt (Sigma-Aldrich Corporation) and 10^−7 M dexamethasone (Sigma-Aldrich Corporation) to prepare the medium.
The hepatic parenchymal cells were diluted with HEPES buffer added with 2% fetal bovine serum to prepare a 10^7 cells/100 μL cell suspension, which was transferred into a 5 mL round-bottom tube. A mouse FcR blocking antibody in EasySep Mouse Biotin Positive Selection Kit ([…] Technologies Inc) was added at 1 μL per 10^7 cells, and the mixture was admixed by tapping the tube. Biotin-labeled anti-E-cadherin antibody (eBioscience) was added at 2-4 μL per 10^7 cells, and the mixture was left standing at room temperature for 15 min while stirring the tube every 2-3 minutes. Biotin Selection Cocktail in EasySep Mouse Biotin Positive Selection Kit was added at 10 μL per 10^7 cells, and the mixture was left standing at room temperature for 15 min with occasional stirring. Magnetic particles in EasySep Mouse Biotin Positive Selection Kit were added at 5 μL per 10^7 cells, and the mixture was stirred and left standing at room temperature for 10 min. To the cell suspension was added a medium for cell isolation, and the volume was adjusted to 2.5 mL. The mixture was suspended with a 2 mL plastic pipette, and the tube was placed in an exclusive magnet ([…] Technologies Inc.) and left standing at room temperature for 10 min. The exclusive magnet containing the tube was reversed for 3 sec, and a non-hepatic progenitor cell fraction was removed (purification operation: first time). The tube was taken out from the exclusive magnet, 2.5 mL of the medium for cell isolation was added, and a purification operation was performed again (purification operation: second time). Furthermore, 2.5 mL of the medium for cell isolation was added, and a purification operation was performed for the third time (purification operation: third time). The cells remaining in the tube are the hepatic progenitor cells.
Total RNA was extracted from cultured cells, liver cancer cell lines, and mouse and human normal hepatic tissues by using miRNeasy Mini Kit (QUIAGEN). The total RNA was quantified by NanoDrop 1000 spectrophotometer (Thermo Fisher Scientific K.K.). The hepatic tissues recovered from mouse were placed in ice-cooled phosphate buffer and disrupted before extraction of RNA. Red blood cells were lysed in Red Blood Cell Lysis Buffer (Sigma-Aldrich Corporation).
(§2) RNA was quantified by the real-time PCR method using 7300 real-time PCR system (Applied Biosystems) and TaqMan MicroRNA Assays (Applied Biosystems). The miRNA expression was standardized at 6NU6B level. For quantification of messenger RNA, total RNA sample was treated with DNase (TURBO DNA-free kit: Ambion Inc.), and cDNA was synthesized from 1 μg of total RNA by using reverse transcriptase (SuperScript III Reverse Transcriptase: Ambion Inc.). For quantification, SYBR Green (PlatinumSYBR Green quantitative PCR SuperMix UDG: Invitrogen Corporation) was used. The reaction for real-time PCR was performed at 95° C., 2 min, 40 cycles (95° C. for 15 sec, 60° C. for 30 sec). The cDNA expression level was standardized by GAPDH.

Dnmt-1 = Dnmt-1 expression level after differentiation induction of mouse hepatic progenitor cells (real-time PCR); assay type: cell-based; settings: 100 nM siRNA; day 6 of culture; compared to control siRNA (siCtrl)
Procedure: as §2, with “GAPDH. […]” for “GAPDH.”
Mouse hepatic progenitor cells were plated at 4×10^4 cells/cm^2 in a 35 mm cell culture dish coated with type I collagen, […], after confluence (after day 4 of culture), the cells were cultured in the medium for hepatic progenitor cells free of epidermal growth factor (EGF) and fetal bovine serum. […] Total RNA was extracted, and Dnmt-1 was quantified by the real-time PCR method. […]

effect of promoting differentiation into a hepatocyte ([5]; among the substances that inhibit DNA methylation)	Compound	mRNA level of CYP gene (HepG2 cells [1])	apoptosis [2]	cytotoxicity [2]	cell morphology [3]	glycogen storage capacity (PAS staining) (HepG2 cells [4])	expression of albumin ([5]; RG108 20 or 100 μM in medium from day 2, day 7 of culture, compared to control)	expression of Dnmt-1 (Dnmt-1)	expression level of Cyp17a1 [5]	expression level of G6pc [5]	expression level of Tat [5]	expression level of albumin [5]
	Nc1ncn([C@H]2C[C@H](O)[C@@H](CO)O2)c(=O)n1 [5-aza-2′-deoxycytidine]	increases	induce apoptosis	high cytotoxicity	morphology specific to mature hepatocyte (multiple nuclei, clear cell boundary)	high glycogen storage capacity						
high effect	O=C(O)C(Cc1c[nH]c2ccccc12)N1C(=O)c2ccccc2C1=O (centres unmarked) [RG108]						high level					
	siDnmt-1a: double stranded RNA, sense strand SEQ ID NO: 9 and antisense strand SEQ ID NO: 10; siRNA that suppresses expression of Dnmt-1 (sense GGUAGAGAGUUACGACGAATT; antisense UUCGUCGUAACUCUCUACCTG; chemistry not given here)							suppressed	high expression levels	high expression levels	high expression levels	high expression levels
	siDnmt-1b: double stranded RNA, sense strand SEQ ID NO: 11 and antisense strand SEQ ID NO: 12; siRNA that suppresses expression of Dnmt-1 (sense CAACGGAUCCUAUCACACUTT; antisense AGUGUGAUAGGAUCCGUUGTA; chemistry not given here)							suppressed	high expression levels	high expression levels	high expression levels	high expression levels
